In patent publication EP4060021A1, “MIMETIC MICROBIOLOGICAL CULTURE MEDIUM AND USES THEREOF” (BIOFILM PHARMA, priority 2021, dated 2022):
Values after ≈ are worked out from the molar mass of the structure shown. Read-outs that look alike come from different tables or passages of the source.

How the values were obtained:
[1] = test system: souches de S. aureus issues de prélèvements de plaies du pied infectées chez des patients diabétiques; assay: Antibiotic susceptibility test (MIC, 96-well microplate, OD 600 nm) in Mueller-Hinton medium (MH); format: cell-based; parameters: key to Classification (S) ou (R) en MH: S (sensible); R (résistante); details: for MIC: Staphylococcus aureus, read-out: CMI en milieu MH
Text: • La Figure 1 représente des courbes de croissance de bactéries en fonction du milieu de culture. Sur cette figure, les ordonnées correspondent au logarithme d'unités formant colonie par millilitre de milieu de culture (Log UFC/ml) et les abscisses, au temps en heure (H). La Figure 1A représente les courbes correspondant à la croissance de 2 souches de S. aureus, Newman (gauche) et SAC1 (droite), dans le milieu BHI (courbe avec indicateurs ronds) et un exemple de milieu selon l'invention (MP) (courbe avec indicateurs carrés). La Figure 1B représente les courbes correspondant à la croissance de 2 souches de P. aeruginosa, PAO1 (gauche) et PAC1 (droite), dans le milieu BHI (courbe avec indicateurs ronds) et un exemple de milieu selon l'invention (MP) (courbe avec indicateurs carrés). La Figure 1C représente les courbes correspondant à la croissance de 2 souches cliniques S. aureus SAC1 et P. aeruginosa PAC1, en coculture dans le milieu BHI (P. aeruginosa BHI ou S. aureus BHI) et un exemple de milieu selon l'invention (MP) (P. aeruginosa MP ou S. aureus MP). La mesure de différence significative, réalisée par le test de Student, entre les valeurs d'UFC/mL est exprimée, soit par (***) qui correspond à une p-value <0,001, soit par (**) qui correspond à une p-value <0,01. • La Figure 2 représente les résultats obtenus d'une détermination de l'adhésion et de la formation de biofilm par dénombrement à 24h. Sur cette figure, les ordonnées correspondent au logarithme d'unités formant colonie par millilitre de milieu de culture (Log UFC/ml). La Figure 2A représente un histogramme ou diagramme en bâton du nombre de bactéries dénombrées suite à des cultures séparées de souche S. aureus Newman (Newman), S. aureus SAC1 (SAC 1), P. aeruginosa PAO1 (PAO1) ou P. aeruginosa PAC1 (PAC1), pendant 24H dans un milieu BHI (BHI) (bâtons noirs) ou dans un exemple de milieu selon l'invention (MP) (bâtons gris). La Figure 2B montre sous forme d'histogramme le nombre de bactéries dénombrées suite à des co-cultures des souches de référence S. aureus Newman et P. aeruginosa PAO1 (PAO1/Newman), ainsi que du couple de souches cliniques S. aureus SAC1 et P. aeruginosa PAC1 (PAC 1/SAC1), pendant 24H dans un milieu BHI (BHI) (bâtons noirs) ou dans un exemple de milieu selon l'invention (MP) (bâtons gris). La mesure de différence significative, réalisée par le test de Student, entre les valeurs d'UFC est exprimée, soit par (***) qui correspond à une p-value <0,001, soit par (**) qui correspond à une p-value <0,01. • La Figure 3 représente les résultats obtenus d'une détermination de sensibilité à des antibiotiques de souches cliniques de S. aureus issues d'infections de plaies du pied chez le diabétique. Les données cliniques, anonymisées, nécessaires à l'interprétation des résultats, consistaient en l'antibiothérapie donnée au patient, ainsi que la qualification par les médecins hospitaliers d'un succès ou échec thérapeutique. La définition de succès ou échec thérapeutique est définie comme suit. Le patient commence et suit l'antibiothérapie prescrite et un deuxième prélèvement microbiologique est effectué lors du dernier jour de traitement de la 1ère antibiothérapie (± 2 jours). Ce prélèvement est utilisé pour déterminer la présence/absence du pathogène ciblé par l'antibiothérapie, S. aureus. Si ce prélèvement a montré la persistance d'un S. aureus, l'antibiothérapie est en échec. A l'inverse, en cas d'absence de S. aureus, l'antibiothérapie est associée à un succès thérapeutique. Les antibiogrammes ont été réalisés classiquement sur une durée de 18h ± 2h en accord avec les recommandations de l'EUCAST. Une gamme de l'antibiotique à tester a été réalisée. • La Figure 3A montre sous forme d'histogramme les résultats des CMI déduites d'antibiogrammes sur 11 souches testées en présence d'amoxicilline / clavulanate de potassium (commercialisé par exemple sous le nom d'Augmentin (marque déposée)).

[2] = test system: souche de S. aureus; details: modèle de sepsis, souris infectée par S. aureus, traitées; cited from earlier work

With cotrimoxazole the “CMI en milieu MH” value ([1]; souche C01P0 01) was 0,5 mg/L, the “Classification (S) ou (R) en MH” value ([1]; souche C01P0 01) was “(S)” and the “CMI en milieu MH” value ([1]; souche C01P0 11) was 4 mg/L. For the same compound, the “Classification (S) ou (R) en MH” value ([1]; souche C01P0 11) was “(S)”, the “CMI en milieu MH” value ([1]; souche C03P0 02) was 1 mg/L and the “Classification (S) ou (R) en MH” value ([1]; souche C03P0 02) was “(S)”. The “CMI en milieu MH” value ([1]; souche C03P0 07) was 1 mg/L, the “Classification (S) ou (R) en MH” value ([1]; souche C03P0 07) was “(S)” and the “CMI dans le milieu MH” value ([1]; souche associée à un succès thérapeutique) was 4 mg/L. For the same compound, the survie des souris [2] was “n'a pas permis la survie des souris”.
With “amoxicilline / clavulanate de potassium [amoxicilline/clavulanate de potassium]” the “CMI en milieu MH” value ([1]; souche C01P012) was 0,25 mg/L / µg/L, the “Classification (S) ou (R) en MH” value ([1]; souche C01P012) was “(S)” and the “CMI en milieu MH” value ([1]; souche C03P001) was 0,25 mg/L / µg/L. The “Classification (S) ou (R) en MH” value ([1]; souche C03P001) was “(S)”, the “CMI en milieu MH” value ([1]; souche C03P008) was 0,5 mg/L / µg/L and the “Classification (S) ou (R) en MH” value ([1]; souche C03P008) was “(S)”. The “CMI en milieu MH” value ([1]; souche C04P003) was 0,25 mg/L / µg/L, the “Classification (S) ou (R) en MH” value ([1]; souche C04P003) was “(S)” and the “CMI en milieu MH” value ([1]; souche C04P005f) was 0,5 mg/L / µg/L. The “Classification (S) ou (R) en MH” value ([1]; souche C04P005f) was “(S)”, the “CMI en milieu MH” value ([1]; souche C04P005i) was 0,5 mg/L / µg/L and the “Classification (S) ou (R) en MH” value ([1]; souche C04P005i) was “(S)”. For the same compound, the “CMI en milieu MH” value ([1]; souche C04P007) was 0,25 mg/L / µg/L, the “Classification (S) ou (R) en MH” value ([1]; souche C04P007) was “(S)” and the “CMI en milieu MH” value ([1]; souche C06P001f) was 0,25 mg/L / µg/L. The “Classification (S) ou (R) en MH” value ([1]; souche C06P001f) was “(S)”, the “CMI en milieu MH” value ([1]; souche C06P001 i) was 0,25 mg/L / µg/L and the “Classification (S) ou (R) en MH” value ([1]; souche C06P001 i) was “(S)”. For the same compound, the “CMI en milieu MH” value ([1]; souche C06P003f) was 0,25 mg/L / µg/L, the “Classification (S) ou (R) en MH” value ([1]; souche C06P003f) was “(S)” and the “CMI en milieu MH” value ([1]; souche C06P003i) was 0,25 mg/L / µg/L. The “Classification (S) ou (R) en MH” value ([1]; souche C06P003i) was “(S)”.
Compound `CCC[C@@H]1C[C@@H](C(=O)N[C@@H]([C@H]2O[C@H](SC)[C@H](O)[C@@H](O)[C@H]2O)[C@H](C)Cl)N(C)C1` [clindamycine] has an MIC ([1]; souche C01P009) of 0.25 µg/mL (≈ 0.588 µM), an MIC ([1]; souche C01P010) of 0.25 µg/mL (≈ 0.588 µM) and an MIC ([1]; souche C03P003) of 0.25 µg/mL (≈ 0.588 µM). It also gave an MIC ([1]; souche C03P004) of 0.25 µg/mL (≈ 0.588 µM), an MIC ([1]; souche C03P005) of 0.25 µg/mL (≈ 0.588 µM) and an MIC ([1]; souche C03P009) of 0.5 µg/mL (≈ 1.18 µM). For the same compound, the “Classification (S) ou (R) en MH” value ([1]; souche C01P009) was “(S)”, the “Classification (S) ou (R) en MH” value ([1]; souche C01P010) was “(S)” and the “Classification (S) ou (R) en MH” value ([1]; souche C03P003) was “(S)”. The “Classification (S) ou (R) en MH” value ([1]; souche C03P004) was “(S)”, the “Classification (S) ou (R) en MH” value ([1]; souche C03P005) was “(S)” and the “Classification (S) ou (R) en MH” value ([1]; souche C03P009) was “(S)”.
